# Reference: patent US12715915B2, “Gout flare prevention methods using IL-1β blockers” (priority 2022, dated 2026)
# Entries after “also recorded” stand apart in the source; their conditions may differ. Where two headings read alike, the source gives them in different places.
# Columns and labels:
# [1] = tested on: adult uncontrolled gout patients; experiment: MIRROR-C: open-label trial of canakinumab prophylaxis to prevent gout flares when initiating pegloticase+MTX; assay type: in vivo, human
# Excerpt: 86. Pegloticase plus methotrexate (approved by FDA in July 2022) is effective at reducing signs/symptoms of uncontrolled gout. In the pivotal trial (MIRROR RCT) the most common adverse event was gout flares which occurred in 54% of patients at month 1 on combination pegloticase and methotrexate. The purpose of this study is to determine if canakinumab is effective for the prevention of gout flares in subjects scheduled to begin KRYSTEXXA® (KRY) (pegloticase) infusions in combination with methotrexate. The most common adverse event that occurs in patients being treated with KRY and methotrexate are gout flares which occurred in 54% of patients at month 1 in the MIRROR RCT. Herein we use canakinumab pretreatment (without corticosteroids, NSAIDs, or colchicine) to reduce the number of gout flares.
# 87 Canakinumab is the drug that is tested herein. It is currently approved by the FDA for the treatment of periodic fever syndromes and active systemic juvenile idiopathic arthritis (SJIA). However, Canakinumab is considered to be experimental in this study. Subjects scheduled (by their treating provider) to receive pegloticase (with methotrexate) receive a single 150 mg injection of subcutaneous canakinumab one week prior to the first scheduled pegloticase infusion. The combination of the drugs is experimental. As shown herein,
# 88. Subjects scheduled (by their treating provider) to receive pegloticase (with methotrexate) receive a single 150 mg injection of subcutaneous canakinumab one week prior to the first scheduled pegloticase infusion. At each infusion, subjects are assessed for gout flares. Canakinumab are provided by the study to subjects without charge. Pegloticase, methotrexate, and other medications are obtained through standard means (patient insurance, patient assistance, etc.) as ordered by treating provider. […] It is assumed that mobilization of gout crystals at the initiation of therapy results in gout flares through the IL-1 inflammasome pathway. A goal of prophylaxis is to reduce the number of flares with initiation. […]
# 89. […] On the day of KRYSTEXXA® administration (i.e., Day 0), the blood pressure, respiratory rate, temperature, and heart rate of patients are measured and patients receive a first administration of KRYSTEXXA® delivered as an intravenous (i.v.) infusion. Every two weeks thereafter during the study (i.e., Day 14, Day 28, Day 42, Day […], Day 98, Day 112, Day 126, Day 140, Day 154, Day 168; also called Week 2, Week 4, Week 6, Week 8, Week 10, Week 12, Week 14, Week 16, Week 18, Week 20, Week 22, Week 24) the blood pressure, respiratory rate, temperature, and heart rate of patients are measured and patients report any gout flares. […]
# [2] = tested on: gout patients initiating allopurinol; details: cited from earlier work; for risk of gout flares during allopurinol initiation: in vivo
# human IL1β = human IL1β (Homo sapiens, UniProt P01584); details: blocks interaction with IL-1 receptors; cited from earlier work
# IL-1α = target: T1, IL-1α (Homo sapiens, UniProt P01583); details: cited from earlier work
# T1 sequence (P01583 113-271): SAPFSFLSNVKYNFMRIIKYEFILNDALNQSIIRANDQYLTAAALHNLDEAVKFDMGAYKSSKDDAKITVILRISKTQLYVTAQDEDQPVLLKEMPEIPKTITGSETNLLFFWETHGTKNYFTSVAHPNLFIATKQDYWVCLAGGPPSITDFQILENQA
# [3] = target: IL-1 receptor antagonist (IL-1ra) (Homo sapiens, UniProt P18510); details: cited from earlier work
# Sequence of IL-1 receptor antagonist (IL-1ra) (P18510 26-177): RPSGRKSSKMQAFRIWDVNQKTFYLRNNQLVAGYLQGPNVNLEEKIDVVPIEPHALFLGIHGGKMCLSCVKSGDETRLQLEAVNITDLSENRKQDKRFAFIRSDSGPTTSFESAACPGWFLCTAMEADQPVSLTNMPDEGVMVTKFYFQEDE
substance,measurement,setting,value
canakinumab,time to resolution of active gout flares after administration,[1]; canakinumab 150 mg s.c.,≤ 48 h
same,treated patients in whom gout flares were prevented,"[1]; canakinumab prophylaxis without corticosteroids, initiation of pegloticase with methotrexate",100%
same,safety of canakinumab prophylaxis with pegloticase+MTX,"[1]; single 150 mg dose, without CS",no new safety signals; also recorded: did not compromise efficacy or safety
same,new gout flares after canakinumab prophylaxis,"[1]; single 150 mg s.c. dose 7 days before first pegloticase infusion, no CS, NSAIDs or colchicine, assessed every 2 wks for 6 mos",No new gout flares; also recorded: prevented gout flares in all patients
same,risk of gout flares during allopurinol initiation,[2],reduces the risk of flares
same,risk of gout flares during allopurinol initiation,[2]; listed as Canakinumab,can reduce subsequent flares
same,prophylaxis against flares compared to colchicine,"[2]; single dose ≥50 mg, initiating allopurinol",superior prophylaxis
same,binding to human IL1β,human IL1β,binds to human IL1β and neutralizes its activity
same,binding to IL-1α,IL-1α,does not bind
same,binding to IL-1 receptor antagonist (IL-1ra),[3],does not bind
